Reference: PubChem BioAssay (NCI)
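Results reflect a 48-hour exposure of cells in 96-well plates to compound at five concentrations. The concentration for 50% growth inhibition is given as GI50. TGI: total growth inhibition.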

Key:
Test in all cases: NCI tumour cell line growth inhibition, 48 h
786-0 renal = system: 786-0 renal
A498 renal = system: A498 renal
A549 NSCLC = system: A549 NSCLC
ACHN renal = system: ACHN renal
BT-549 breast = system: BT-549 breast
CAKI-1 renal = system: CAKI-1 renal
CCRF-CEM leukemia = system: CCRF-CEM leukemia
COLO 205 colon = system: COLO 205 colon
DU-145 prostate = system: DU-145 prostate
EKVX NSCLC = system: EKVX NSCLC
HCC-2998 colon = system: HCC-2998 colon
HCT-116 colon = system: HCT-116 colon
HCT-15 colon = system: HCT-15 colon
HL-60(TB) leukemia = system: HL-60(TB) leukemia
HOP-62 NSCLC = system: HOP-62 NSCLC
HOP-92 NSCLC = system: HOP-92 NSCLC
HS 578T breast = system: HS 578T breast
HT29 colon = system: HT29 colon
IGROV1 ovarian = system: IGROV1 ovarian
K-562 leukemia = system: K-562 leukemia
KM12 colon = system: KM12 colon
LOX IMVI melanoma = system: LOX IMVI melanoma
M14 melanoma = system: M14 melanoma
MALME-3M melanoma = system: MALME-3M melanoma
MCF7 breast = system: MCF7 breast
MDA-MB-231 breast = system: MDA-MB-231 breast
MDA-MB-435 = system: MDA-MB-435
MOLT-4 leukemia = system: MOLT-4 leukemia
NCI-H226 lung = system: NCI-H226 lung
NCI-H23 lung = system: NCI-H23 lung
NCI-H460 lung = system: NCI-H460 lung
NCI-H522 lung = system: NCI-H522 lung
NCI/ADR-RES ovarian = system: NCI/ADR-RES ovarian
OVCAR-3 ovarian = system: OVCAR-3 ovarian
OVCAR-4 ovarian = system: OVCAR-4 ovarian
OVCAR-5 ovarian = system: OVCAR-5 ovarian
OVCAR-8 ovarian = system: OVCAR-8 ovarian
PC-3 prostate = system: PC-3 prostate
RPMI-8226 leukemia = system: RPMI-8226 leukemia
RXF 393 renal = system: RXF 393 renal
SF-268 CNS = system: SF-268 CNS
SF-295 CNS = system: SF-295 CNS
SF-539 CNS = system: SF-539 CNS
SK-MEL-2 melanoma = system: SK-MEL-2 melanoma
SK-MEL-28 melanoma = system: SK-MEL-28 melanoma
SK-MEL-5 melanoma = system: SK-MEL-5 melanoma
SK-OV-3 ovarian = system: SK-OV-3 ovarian
SN12C renal = system: SN12C renal
SNB-19 CNS = system: SNB-19 CNS
SNB-75 CNS = system: SNB-75 CNS
SR leukemia = system: SR leukemia
SW-620 colon = system: SW-620 colon
T-47D breast = system: T-47D breast
TK-10 renal = system: TK-10 renal
U251 CNS = system: U251 CNS
UACC-257 melanoma = system: UACC-257 melanoma
UACC-62 melanoma = system: UACC-62 melanoma
UO-31 renal = system: UO-31 renal

## C#CC#CC#CC#CC#CC#CC#CC#CC[C@@H]1OC[C@H](COC(=O)O[C@@H](C(=O)O[C@H]2C[C@@]3(O)[C@@H](OC(=O)c4ccccc4)[C@@H]4[C@]5(OC(C)=O)CO[C@@H]5C[C@H](O)[C@@]4(C)C(=O)[C@H](OC(C)=O)C(=C2C)C3(C)C)[C@@H](NC(=O)c2ccccc2)c2ccccc2)O1
786-0 renal
  GI50: > 25 µM
  TGI: > 25 µM
A498 renal
  GI50: 1.39 µM
  TGI: > 23.5 µM
A549 NSCLC
  GI50: 1.42 µM
  TGI: > 25 µM
ACHN renal
  GI50: > 25 µM
  TGI: > 25 µM
BT-549 breast
  GI50: 3.71 µM
  TGI: > 25 µM
CAKI-1 renal
  GI50: 5.85 µM
  TGI: > 25 µM
CCRF-CEM leukemia
  GI50: 1.25 µM
  TGI: > 25 µM
COLO 205 colon
  GI50: 0.665 µM
  TGI: > 10.8 µM
DU-145 prostate
  GI50: 0.681 µM
  TGI: > 25 µM
EKVX NSCLC
  GI50: > 25 µM
  TGI: > 25 µM
HCC-2998 colon
  GI50: 1.26 µM
  TGI: > 25 µM
HCT-116 colon
  GI50: 0.596 µM
  TGI: > 25 µM
HCT-15 colon
  GI50: > 25 µM
  TGI: > 25 µM
HL-60(TB) leukemia
  GI50: 0.819 µM
  TGI: > 18.7 µM
HOP-62 NSCLC
  GI50: 5.13 µM
  TGI: > 25 µM
HOP-92 NSCLC
  GI50: > 18.5 µM
  TGI: > 25 µM
HS 578T breast
  GI50: 0.673 µM
  TGI: > 25 µM
HT29 colon
  GI50: 0.355 µM
  TGI: > 25 µM
IGROV1 ovarian
  GI50: 1.29 µM
  TGI: > 25 µM
K-562 leukemia
  GI50: 1.04 µM
  TGI: > 25 µM
KM12 colon
  GI50: 0.683 µM
  TGI: > 25 µM
LOX IMVI melanoma
  GI50: 0.708 µM
  TGI: > 25 µM
M14 melanoma
  GI50: 1.09 µM
  TGI: 24.9 µM
MALME-3M melanoma
  GI50: 2.07 µM
  TGI: > 25 µM
MCF7 breast
  GI50: 0.348 µM
  TGI: > 25 µM
MDA-MB-231 breast
  GI50: 4.17 µM
  TGI: > 25 µM
MDA-MB-435
  GI50: 0.0987 µM
  TGI: 0.398 µM
MOLT-4 leukemia
  GI50: 1.85 µM
  TGI: > 25 µM
NCI-H226 lung
  GI50: > 21.8 µM
  TGI: > 25 µM
NCI-H23 lung
  GI50: 2.24 µM
  TGI: > 25 µM
NCI-H460 lung
  GI50: 0.185 µM
  TGI: > 25 µM
NCI-H522 lung
  GI50: 1.81 µM
  TGI: > 25 µM
NCI/ADR-RES ovarian
  GI50: > 25 µM
  TGI: > 25 µM
OVCAR-3 ovarian
  GI50: 0.682 µM
  TGI: > 25 µM
OVCAR-4 ovarian
  GI50: > 21 µM
  TGI: > 25 µM
OVCAR-5 ovarian
  GI50: 1.58 µM
  TGI: > 25 µM
OVCAR-8 ovarian
  GI50: 1.57 µM
  TGI: > 25 µM
PC-3 prostate
  GI50: 1.58 µM
  TGI: > 25 µM
RPMI-8226 leukemia
  GI50: 0.436 µM
  TGI: > 25 µM
RXF 393 renal
  GI50: > 5.16 µM
  TGI: > 25 µM
SF-268 CNS
  GI50: 1.93 µM
  TGI: > 25 µM
SF-295 CNS
  TGI: > 25 µM
SF-539 CNS
  GI50: 1.2 µM
  TGI: > 25 µM
SK-MEL-2 melanoma
  GI50: 5.65 µM
  TGI: > 25 µM
SK-MEL-28 melanoma
  GI50: 3.88 µM
  TGI: > 25 µM
SK-MEL-5 melanoma
  GI50: 3.13 µM
  TGI: > 25 µM
SK-OV-3 ovarian
  GI50: 3.32 µM
  TGI: > 25 µM
SN12C renal
  GI50: 4.36 µM
  TGI: > 25 µM
SNB-19 CNS
  GI50: 3.88 µM
  TGI: > 25 µM
SNB-75 CNS
  GI50: 0.114 µM
  TGI: 1.48 µM
SR leukemia
  GI50: 0.862 µM
  TGI: > 25 µM
SW-620 colon
  GI50: 0.819 µM
  TGI: > 25 µM
T-47D breast
  GI50: 1.07 µM
  TGI: > 25 µM
TK-10 renal
  GI50: > 25 µM
  TGI: > 25 µM
U251 CNS
  GI50: 1.42 µM
  TGI: > 25 µM
UACC-257 melanoma
  GI50: 6.61 µM
  TGI: > 25 µM
UACC-62 melanoma
  GI50: 5.58 µM
  TGI: > 25 µM
UO-31 renal
  GI50: > 25 µM
  TGI: > 25 µM
